Test results from patent publication US20130252917A1, “COMBINATION THERAPY OF 4-(3-(2H-1,2,3-TRIAZO-2-YL)PHENYLAMINO)-2-((1R,2S)-2-AMINOCYCLOHEXYLAMINO)PYRIMIDINE-5-CARBOXAMIDE AND FLUDARABINE” (priority 2010, published 2013).
Like-named read-outs stand apart in the source and are kept apart here.

Tested on: primary CLL cells
Assay: tetrazolium-based cell viability assay (MTS) on primary CLL cells, Compound 1 with or without fludarabine
Design: species or system human
Conditions: for IC50: Homo sapiens, CLL cell
Method: Fresh primary CLL cells from 42 CLL patients were purified using a Ficoll gradient. Purified cells were then added to wells (5×10^4 per well) containing 10% serum serum containing media and four serial dilutions of Compound 1 (ranging from 10 nM to 10 μM) with or without different concentrations of fludarabine (also ranging from 10 nM to 10 μM). […] The viability data were normalized to untreated controls and were used to calculate IC50 values. […] Comput. Biomed. Res. 199, 32(2): 145-160).

For `NC(=O)c1cnc(N[C@@H]2CCCC[C@@H]2N)nc1Nc1cccc(-n2nccn2)c1` [Compound 1, 4-(3-(2H-1,2,3-triazol-2-yl)phenylamino)-2-((1R,2S)-2-aminocyclohexylamino)pyrimidine-5-carboxamide], the IC50 (read-out: median IC50 (cell viability)) was 394 nM, the IC50 (three of seven samples with the 17p deletion that had significant activity, read-out: IC50 (cell viability)) was 37.5 nM and the cell viability (samples from relapsed patients and with poor risk features (ZAP70 and/or CD38 expression, 11q deletion, unmutated IgVh)) was “significant decreases in cell viability”.
